Source: ChEMBL document CHEMBL3991601, “The target landscape of clinical kinase drugs” (Science, 2017)
Active and inactive are the calls of the source.

Tests used:
[1] = target: Serine/threonine-protein kinase N3 (Homo sapiens, UniProt Q6P5Z2)
[2] = target: Cyclin-dependent kinase 17 (Homo sapiens, UniProt Q00537)
[3] = target: T1, ATP-dependent RNA helicase DHX30 (Homo sapiens, UniProt Q7L2E3)
T1 sequence (Q7L2E3 whole entry): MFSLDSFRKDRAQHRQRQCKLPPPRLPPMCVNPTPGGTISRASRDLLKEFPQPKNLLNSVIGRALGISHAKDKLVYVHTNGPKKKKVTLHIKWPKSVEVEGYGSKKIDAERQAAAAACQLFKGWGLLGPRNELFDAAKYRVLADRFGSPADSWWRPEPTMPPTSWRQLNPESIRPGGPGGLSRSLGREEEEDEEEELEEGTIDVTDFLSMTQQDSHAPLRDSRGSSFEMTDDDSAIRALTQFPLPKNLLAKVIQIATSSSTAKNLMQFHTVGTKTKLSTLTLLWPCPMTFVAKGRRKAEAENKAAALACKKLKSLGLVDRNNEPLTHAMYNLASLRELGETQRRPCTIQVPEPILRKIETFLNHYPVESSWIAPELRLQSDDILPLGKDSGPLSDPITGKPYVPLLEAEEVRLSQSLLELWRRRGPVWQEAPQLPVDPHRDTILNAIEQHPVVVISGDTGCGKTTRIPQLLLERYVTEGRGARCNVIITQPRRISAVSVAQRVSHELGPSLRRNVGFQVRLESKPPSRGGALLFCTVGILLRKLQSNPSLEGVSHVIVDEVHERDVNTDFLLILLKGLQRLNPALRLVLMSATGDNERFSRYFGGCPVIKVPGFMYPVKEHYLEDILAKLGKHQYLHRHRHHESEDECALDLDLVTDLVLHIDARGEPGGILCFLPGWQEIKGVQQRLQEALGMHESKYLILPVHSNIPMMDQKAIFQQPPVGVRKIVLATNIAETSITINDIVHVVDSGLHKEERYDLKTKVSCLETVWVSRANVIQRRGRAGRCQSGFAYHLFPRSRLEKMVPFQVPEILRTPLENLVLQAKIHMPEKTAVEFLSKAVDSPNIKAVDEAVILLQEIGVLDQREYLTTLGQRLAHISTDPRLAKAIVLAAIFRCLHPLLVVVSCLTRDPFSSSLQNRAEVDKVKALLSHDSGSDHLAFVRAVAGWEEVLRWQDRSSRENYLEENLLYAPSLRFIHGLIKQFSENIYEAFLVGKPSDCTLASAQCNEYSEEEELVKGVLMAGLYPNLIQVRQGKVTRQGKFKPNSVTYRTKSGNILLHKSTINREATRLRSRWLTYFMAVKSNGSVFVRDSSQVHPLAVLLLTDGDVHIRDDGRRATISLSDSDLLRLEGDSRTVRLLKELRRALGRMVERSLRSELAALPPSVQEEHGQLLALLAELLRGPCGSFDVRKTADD

[4] = target: Choline-phosphate cytidylyltransferase A (Homo sapiens, UniProt P49585)
[5] = target: Protein kinase C theta type (Homo sapiens, UniProt Q04759)
[6] = target: Tyrosine-protein kinase Lck (Homo sapiens, UniProt P06239)
[7] = target: Mitogen-activated protein kinase 14 (Homo sapiens, UniProt Q16539)
[8] = target: T2, Isoleucine--tRNA ligase, mitochondrial (Homo sapiens, UniProt Q9NSE4)
T2 sequence (Q9NSE4 whole entry): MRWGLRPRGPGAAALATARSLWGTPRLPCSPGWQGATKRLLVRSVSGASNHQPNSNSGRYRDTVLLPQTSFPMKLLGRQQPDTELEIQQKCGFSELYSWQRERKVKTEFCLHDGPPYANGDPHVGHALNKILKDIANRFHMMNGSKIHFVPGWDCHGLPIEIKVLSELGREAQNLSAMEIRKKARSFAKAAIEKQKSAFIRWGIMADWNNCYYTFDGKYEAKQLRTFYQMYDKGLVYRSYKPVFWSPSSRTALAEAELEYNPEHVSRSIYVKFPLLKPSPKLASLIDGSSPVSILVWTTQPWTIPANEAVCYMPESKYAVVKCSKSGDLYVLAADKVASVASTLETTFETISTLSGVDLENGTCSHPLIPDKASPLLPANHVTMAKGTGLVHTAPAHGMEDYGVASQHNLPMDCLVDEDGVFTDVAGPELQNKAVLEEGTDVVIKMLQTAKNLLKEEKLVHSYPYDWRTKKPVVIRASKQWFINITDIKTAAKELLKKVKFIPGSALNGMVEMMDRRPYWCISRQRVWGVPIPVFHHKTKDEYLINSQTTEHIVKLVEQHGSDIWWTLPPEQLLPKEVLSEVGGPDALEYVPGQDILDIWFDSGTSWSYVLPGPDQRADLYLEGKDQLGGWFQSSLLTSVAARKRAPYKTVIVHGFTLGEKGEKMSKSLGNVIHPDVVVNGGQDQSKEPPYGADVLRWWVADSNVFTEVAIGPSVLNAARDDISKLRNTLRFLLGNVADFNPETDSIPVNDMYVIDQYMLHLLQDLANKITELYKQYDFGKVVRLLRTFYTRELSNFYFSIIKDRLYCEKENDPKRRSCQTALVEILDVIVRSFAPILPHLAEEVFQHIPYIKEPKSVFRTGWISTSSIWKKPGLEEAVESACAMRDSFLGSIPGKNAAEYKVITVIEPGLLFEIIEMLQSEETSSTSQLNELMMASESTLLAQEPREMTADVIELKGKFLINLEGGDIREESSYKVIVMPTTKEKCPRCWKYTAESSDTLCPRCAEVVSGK

[9] = target: DNA topoisomerase 2-alpha (Homo sapiens, UniProt P11388)
Focal adhesion kinase 1 = Focal adhesion kinase 1 (Homo sapiens, UniProt Q05397)
[10] = target: Proto-oncogene tyrosine-protein kinase receptor Ret (Homo sapiens, UniProt P07949)
[11] = target: Epidermal growth factor receptor (Homo sapiens, UniProt P00533)
[12] = target: Phosphatidylethanolamine-binding protein 1 (Homo sapiens, UniProt P30086)
[13] = target: Serine/threonine-protein kinase pim-2 (Homo sapiens, UniProt Q9P1W9)
[14] = target: Uncharacterized aarF domain-containing protein kinase 5 (Homo sapiens, UniProt Q3MIX3)
[15] = target: MAP kinase-activated protein kinase 3 (Homo sapiens, UniProt Q16644)
Further: in the data inactive means no Kd found up to 30 µM.

Sequence of Focal adhesion kinase 1 (Q05397 whole entry): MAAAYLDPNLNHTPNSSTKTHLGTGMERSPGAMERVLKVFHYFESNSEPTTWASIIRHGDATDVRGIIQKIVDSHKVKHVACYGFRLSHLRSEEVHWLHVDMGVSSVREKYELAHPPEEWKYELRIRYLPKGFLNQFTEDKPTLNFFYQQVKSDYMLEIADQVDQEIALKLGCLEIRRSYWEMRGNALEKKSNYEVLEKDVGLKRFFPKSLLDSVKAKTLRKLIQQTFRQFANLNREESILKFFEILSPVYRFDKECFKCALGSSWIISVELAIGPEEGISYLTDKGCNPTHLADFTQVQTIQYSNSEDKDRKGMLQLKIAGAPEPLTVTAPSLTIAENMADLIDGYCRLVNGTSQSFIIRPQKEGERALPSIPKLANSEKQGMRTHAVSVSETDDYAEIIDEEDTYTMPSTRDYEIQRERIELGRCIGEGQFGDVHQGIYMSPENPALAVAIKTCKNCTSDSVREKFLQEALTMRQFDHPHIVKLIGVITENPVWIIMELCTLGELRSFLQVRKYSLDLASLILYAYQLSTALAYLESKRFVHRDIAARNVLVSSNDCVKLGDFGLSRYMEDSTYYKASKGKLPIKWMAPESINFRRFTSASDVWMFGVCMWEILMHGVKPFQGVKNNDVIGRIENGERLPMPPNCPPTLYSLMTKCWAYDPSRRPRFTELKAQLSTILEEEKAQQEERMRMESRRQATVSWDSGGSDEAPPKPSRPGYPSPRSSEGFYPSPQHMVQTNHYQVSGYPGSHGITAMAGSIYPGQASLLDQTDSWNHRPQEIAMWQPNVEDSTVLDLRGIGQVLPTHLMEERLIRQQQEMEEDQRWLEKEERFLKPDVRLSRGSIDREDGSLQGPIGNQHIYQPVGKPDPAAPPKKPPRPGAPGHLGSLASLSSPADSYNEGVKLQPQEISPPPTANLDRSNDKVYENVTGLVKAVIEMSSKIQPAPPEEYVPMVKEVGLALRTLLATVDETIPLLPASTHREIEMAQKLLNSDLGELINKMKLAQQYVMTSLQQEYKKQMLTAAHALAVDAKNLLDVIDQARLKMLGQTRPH
Sequence of DNA topoisomerase 2-alpha (P11388 whole entry): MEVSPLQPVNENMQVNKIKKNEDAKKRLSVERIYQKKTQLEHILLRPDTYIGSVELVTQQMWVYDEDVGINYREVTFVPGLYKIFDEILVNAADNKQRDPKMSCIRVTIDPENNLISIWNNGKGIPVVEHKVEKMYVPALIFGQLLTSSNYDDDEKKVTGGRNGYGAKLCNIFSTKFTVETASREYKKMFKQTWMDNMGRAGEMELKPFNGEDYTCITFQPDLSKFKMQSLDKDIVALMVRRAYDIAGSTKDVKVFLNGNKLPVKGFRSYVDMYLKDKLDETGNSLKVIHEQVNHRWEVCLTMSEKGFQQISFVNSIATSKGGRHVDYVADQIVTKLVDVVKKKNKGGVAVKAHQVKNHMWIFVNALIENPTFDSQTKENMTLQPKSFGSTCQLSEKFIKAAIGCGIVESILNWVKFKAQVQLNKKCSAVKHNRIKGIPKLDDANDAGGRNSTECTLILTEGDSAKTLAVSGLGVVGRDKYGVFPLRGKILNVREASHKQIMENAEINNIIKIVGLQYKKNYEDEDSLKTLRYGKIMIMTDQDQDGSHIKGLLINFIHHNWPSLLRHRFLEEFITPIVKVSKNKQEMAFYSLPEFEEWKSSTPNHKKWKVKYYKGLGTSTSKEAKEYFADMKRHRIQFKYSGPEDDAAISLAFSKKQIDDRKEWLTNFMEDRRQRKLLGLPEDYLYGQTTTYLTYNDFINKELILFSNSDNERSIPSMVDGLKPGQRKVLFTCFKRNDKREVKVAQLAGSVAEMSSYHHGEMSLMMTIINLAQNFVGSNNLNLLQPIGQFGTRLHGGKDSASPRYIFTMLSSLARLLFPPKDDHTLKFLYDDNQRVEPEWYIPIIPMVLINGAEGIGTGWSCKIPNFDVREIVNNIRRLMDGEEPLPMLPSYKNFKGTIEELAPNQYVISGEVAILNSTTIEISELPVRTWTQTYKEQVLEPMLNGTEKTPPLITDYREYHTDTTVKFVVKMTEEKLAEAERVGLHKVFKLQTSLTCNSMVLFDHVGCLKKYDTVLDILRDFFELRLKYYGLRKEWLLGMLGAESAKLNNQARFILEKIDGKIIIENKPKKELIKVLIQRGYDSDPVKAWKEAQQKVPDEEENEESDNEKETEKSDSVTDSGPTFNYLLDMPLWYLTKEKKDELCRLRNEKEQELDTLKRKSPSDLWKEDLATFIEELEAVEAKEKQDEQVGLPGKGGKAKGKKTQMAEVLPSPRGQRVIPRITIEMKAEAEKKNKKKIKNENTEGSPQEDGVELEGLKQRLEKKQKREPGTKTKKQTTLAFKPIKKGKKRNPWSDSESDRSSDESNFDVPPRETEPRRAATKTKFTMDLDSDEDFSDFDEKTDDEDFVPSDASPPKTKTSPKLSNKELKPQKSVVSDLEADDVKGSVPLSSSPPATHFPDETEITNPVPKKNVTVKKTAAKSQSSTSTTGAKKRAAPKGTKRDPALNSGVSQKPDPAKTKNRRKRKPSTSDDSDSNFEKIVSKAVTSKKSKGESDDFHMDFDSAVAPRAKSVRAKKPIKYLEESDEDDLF
Sequence of Phosphatidylethanolamine-binding protein 1 (P30086 whole entry): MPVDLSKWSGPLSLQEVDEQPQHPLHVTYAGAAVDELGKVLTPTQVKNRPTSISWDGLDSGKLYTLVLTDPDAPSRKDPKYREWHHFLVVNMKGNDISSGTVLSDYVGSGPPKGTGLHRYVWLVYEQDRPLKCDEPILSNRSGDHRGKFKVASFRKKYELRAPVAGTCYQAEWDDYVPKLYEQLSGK
Sequence of MAP kinase-activated protein kinase 3 (Q16644 whole entry): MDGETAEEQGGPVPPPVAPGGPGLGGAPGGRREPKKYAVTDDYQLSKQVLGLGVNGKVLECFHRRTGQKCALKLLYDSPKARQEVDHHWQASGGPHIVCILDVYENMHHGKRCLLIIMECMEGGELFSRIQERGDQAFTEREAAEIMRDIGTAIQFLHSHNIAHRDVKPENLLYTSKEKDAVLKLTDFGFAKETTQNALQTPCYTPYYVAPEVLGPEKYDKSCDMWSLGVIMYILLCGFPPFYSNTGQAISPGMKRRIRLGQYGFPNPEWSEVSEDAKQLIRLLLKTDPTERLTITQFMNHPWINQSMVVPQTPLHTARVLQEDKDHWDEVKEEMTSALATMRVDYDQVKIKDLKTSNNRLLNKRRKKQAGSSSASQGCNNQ
Sequence of Proto-oncogene tyrosine-protein kinase receptor Ret (P07949 whole entry): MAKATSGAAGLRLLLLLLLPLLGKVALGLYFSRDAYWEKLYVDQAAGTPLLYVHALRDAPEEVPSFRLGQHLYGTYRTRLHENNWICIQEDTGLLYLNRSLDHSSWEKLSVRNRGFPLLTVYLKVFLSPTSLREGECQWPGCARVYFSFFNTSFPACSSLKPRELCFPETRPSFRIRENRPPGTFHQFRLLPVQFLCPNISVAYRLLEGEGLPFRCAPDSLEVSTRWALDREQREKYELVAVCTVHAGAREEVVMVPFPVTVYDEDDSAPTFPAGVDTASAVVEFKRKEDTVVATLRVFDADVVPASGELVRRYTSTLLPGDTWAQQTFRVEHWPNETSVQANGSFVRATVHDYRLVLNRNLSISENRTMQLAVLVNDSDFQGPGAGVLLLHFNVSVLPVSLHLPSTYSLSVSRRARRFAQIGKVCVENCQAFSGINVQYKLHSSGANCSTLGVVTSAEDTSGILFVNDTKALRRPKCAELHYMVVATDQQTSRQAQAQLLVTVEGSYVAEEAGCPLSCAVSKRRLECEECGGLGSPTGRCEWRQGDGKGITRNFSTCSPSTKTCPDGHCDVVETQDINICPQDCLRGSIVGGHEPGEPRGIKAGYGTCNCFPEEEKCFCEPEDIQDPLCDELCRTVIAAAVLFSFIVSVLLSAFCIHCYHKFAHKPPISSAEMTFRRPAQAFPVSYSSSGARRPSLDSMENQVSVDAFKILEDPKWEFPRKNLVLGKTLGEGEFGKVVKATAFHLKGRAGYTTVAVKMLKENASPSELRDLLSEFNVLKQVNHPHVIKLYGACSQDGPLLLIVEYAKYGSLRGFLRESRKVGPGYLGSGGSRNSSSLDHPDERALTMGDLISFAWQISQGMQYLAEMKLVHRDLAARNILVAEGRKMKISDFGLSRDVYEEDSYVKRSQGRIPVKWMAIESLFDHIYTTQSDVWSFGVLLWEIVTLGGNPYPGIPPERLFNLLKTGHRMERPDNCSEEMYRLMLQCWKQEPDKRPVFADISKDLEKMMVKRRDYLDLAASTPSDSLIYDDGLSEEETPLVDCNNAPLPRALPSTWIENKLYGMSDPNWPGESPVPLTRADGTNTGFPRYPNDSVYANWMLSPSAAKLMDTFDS
Sequence of Protein kinase C theta type (Q04759 whole entry): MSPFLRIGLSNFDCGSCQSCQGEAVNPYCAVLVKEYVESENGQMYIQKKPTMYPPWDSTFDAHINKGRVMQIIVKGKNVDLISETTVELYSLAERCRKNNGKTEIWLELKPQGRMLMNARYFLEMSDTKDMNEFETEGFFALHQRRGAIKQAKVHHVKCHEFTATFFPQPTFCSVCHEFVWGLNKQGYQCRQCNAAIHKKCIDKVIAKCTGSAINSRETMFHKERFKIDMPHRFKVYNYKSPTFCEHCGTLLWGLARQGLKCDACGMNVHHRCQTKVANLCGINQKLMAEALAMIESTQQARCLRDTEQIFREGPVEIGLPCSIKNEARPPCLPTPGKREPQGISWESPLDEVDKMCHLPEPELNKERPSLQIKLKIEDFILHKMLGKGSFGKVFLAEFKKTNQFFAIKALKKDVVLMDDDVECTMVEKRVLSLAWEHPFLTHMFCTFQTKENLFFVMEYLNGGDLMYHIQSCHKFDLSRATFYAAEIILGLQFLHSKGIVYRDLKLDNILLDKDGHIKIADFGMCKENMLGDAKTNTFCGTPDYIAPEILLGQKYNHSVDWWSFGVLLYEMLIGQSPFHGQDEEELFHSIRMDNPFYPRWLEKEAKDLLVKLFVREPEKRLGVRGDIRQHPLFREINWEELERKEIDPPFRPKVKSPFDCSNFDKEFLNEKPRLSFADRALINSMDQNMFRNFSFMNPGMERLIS

Row | Kd [1] | Kd [2] | Kd [3] | Kd [5] | Kd [6] | Kd [7] | Kd [9] | Kd (Focal adhesion kinase 1) | Kd [10] | Kd [11] | Kd [12] | Kd [13] | Kd [14] | Kd [15] | SMILES | Kd [4] | Kd [8]
1 | > 30 µM (inactive) | > 30 µM (inactive) | > 30 µM (inactive) | > 30 µM (inactive) | > 30 µM (inactive) | 0.729 µM (active) | > 30 µM (inactive) | > 30 µM (inactive) |  |  | > 30 µM (inactive) | > 30 µM (inactive) | > 30 µM (inactive) | > 30 µM (inactive) | O[C@H]1CC[C@H](Nc2ncc3nc(Nc4c(F)cc(F)cc4F)n([C@H]4CCOC4)c3n2)CC1 [TANZISERTIB] |  | > 30 µM (inactive)
2 | > 30 µM (inactive) | > 30 µM (inactive) | > 30 µM (inactive) | > 30 µM (inactive) | 1.47 µM (active) | > 30 µM (inactive) |  | > 30 µM (inactive) | 1.03 µM (active) | > 30 µM (inactive) |  | > 30 µM (inactive) | > 30 µM (inactive) | > 30 µM (inactive) | Cc1cc(-c2cc(OC(=O)c3ccccc3)ccc2Cl)cc2nnc(Nc3ccc(OCCN4CCCC4)cc3)nc12 [TG100-801] |  | 
3 |  | > 30 µM (inactive) | > 30 µM (inactive) | 0.006 µM | > 30 µM (inactive) | > 30 µM (inactive) | > 30 µM (inactive) | > 30 µM (inactive) | > 30 µM (inactive) | > 30 µM (inactive) |  | > 30 µM (inactive) |  | > 30 µM (inactive) | FC(F)(F)c1ccc(CNc2ccc(Cc3c[nH]c4ncc(Cl)cc34)cn2)cn1 [PEXIDARTINIB] |  | 
4 | > 30 µM (inactive) |  |  |  |  |  | > 30 µM (inactive) |  |  |  | > 30 µM (inactive) |  |  |  | Cn1cnc2c(F)c(Nc3ccc(Br)cc3Cl)c(C(=O)NOCCO)cc21 [SELUMETINIB] | > 30 µM (inactive) | > 30 µM (inactive)
5 |  |  | > 30 µM (inactive) |  |  |  |  |  |  |  | > 30 µM (inactive) |  | > 30 µM (inactive) |  | CC1(C)CNc2cc(NC(=O)c3cccnc3NCc3ccncc3)ccc21 [MOTESANIB] | > 30 µM (inactive) | 
6 | > 30 µM (inactive) | > 30 µM (inactive) | > 30 µM (inactive) | > 30 µM (inactive) | > 30 µM (inactive) | > 30 µM (inactive) | > 30 µM (inactive) | > 30 µM (inactive) | > 30 µM (inactive) | 0.005 µM (active) |  | > 30 µM (inactive) |  | > 30 µM (inactive) | C[C@@H]1COC(Nc2ccc3ncnc(Nc4ccc(OCc5nccs5)c(Cl)c4)c3c2)=N1 [VARLITINIB] |  | 
7 |  | > 30 µM (inactive) | > 30 µM (inactive) | > 30 µM (inactive) | > 30 µM (inactive) | > 30 µM (inactive) | > 30 µM (inactive) | > 30 µM (inactive) | 2.42 µM (active) | 0.602 µM (active) | > 30 µM (inactive) |  | > 30 µM (inactive) | > 30 µM (inactive) | COc1cc2ncnc3c2cc1OCCCCCN(C)Cc1ccc(Br)cc1N3 [JNJ-26483327] |  | > 30 µM (inactive)
8 |  | > 30 µM (inactive) | > 30 µM (inactive) | > 30 µM (inactive) | > 30 µM (inactive) | > 30 µM (inactive) |  | > 30 µM (inactive) | > 30 µM (inactive) |  | > 30 µM (inactive) | > 30 µM (inactive) | > 30 µM (inactive) | > 30 µM (inactive) | COc1cc2ncnc(Nc3ccc(F)c(Cl)c3)c2cc1NC(=O)/C=C/CN1CCCCC1 [DACOMITINIB ANHYDROUS] |  | 
9 | > 30 µM (inactive) | > 30 µM (inactive) | > 30 µM (inactive) | > 30 µM (inactive) | > 30 µM (inactive) | > 30 µM (inactive) | > 30 µM (inactive) | > 30 µM (inactive) | > 30 µM (inactive) | > 30 µM (inactive) | > 30 µM (inactive) |  |  |  | O=C(NC[C@H](O)CO)c1ccncc1Nc1ccc(I)cc1F [PIMASERTIB] | > 30 µM (inactive) | 0.011 µM

Row | SMILES | Kd [1] | Kd [2] | Kd [3] | Kd [5] | Kd [6] | Kd [7] | Kd [9] | Kd (Focal adhesion kinase 1) | Kd [10] | Kd [11] | Kd [12] | Kd [13] | Kd [14] | Kd [15] | Kd [4] | Kd [8]
10 | C[C@]1(O)C[C@@H](c2nc(-c3ccc4ccc(-c5ccccc5)nc4c3)c3c(N)nccn32)C1 [LINSITINIB] | > 30 µM (inactive) | > 30 µM (inactive) | > 30 µM (inactive) | > 30 µM (inactive) |  |  |  |  |  |  |  |  |  |  | > 30 µM (inactive) | 
11 | NC[C@@](O)(c1ccc(Cl)cc1)c1ccc(-c2cn[nH]c2)cc1 [AT-13148] |  |  |  | > 30 µM (inactive) | > 30 µM (inactive) | > 30 µM (inactive) | > 30 µM (inactive) | > 30 µM (inactive) | > 30 µM (inactive) | > 30 µM (inactive) | > 30 µM (inactive) |  |  |  | > 30 µM (inactive) | > 30 µM (inactive)
12 | COCCN1CCN(Cc2ccc(-c3n[nH]c4c3C(=O)c3c(NC(=O)NN5CCOCC5)cccc3-4)cc2)CC1 [RGB-286638] |  |  | > 30 µM (inactive) | > 30 µM (inactive) | > 30 µM (inactive) | > 30 µM (inactive) | > 30 µM (inactive) | > 30 µM (inactive) | > 30 µM (inactive) | > 30 µM (inactive) | > 30 µM (inactive) | 0.042 µM (active) | > 30 µM (inactive) | > 30 µM (inactive) |  | > 30 µM (inactive)
13 | C=CC(=O)Nc1cc(Nc2nccc(-c3cn(C)c4ccccc34)n2)c(OC)cc1N(C)CCN(C)C [OSIMERTINIB] | > 30 µM (inactive) | > 30 µM (inactive) | > 30 µM (inactive) | > 30 µM (inactive) | > 30 µM (inactive) | > 30 µM (inactive) | > 30 µM (inactive) | > 30 µM (inactive) | > 30 µM (inactive) |  | > 30 µM (inactive) |  |  | > 30 µM (inactive) |  | > 30 µM (inactive)
14 | Cc1c(Cn2c(C)nc3c(C(=O)O)cc(N4CCOCC4)cc32)cccc1C(F)(F)F [GSK-2636771] |  | > 30 µM (inactive) |  | > 30 µM (inactive) | > 30 µM (inactive) | > 30 µM (inactive) | > 30 µM (inactive) | > 30 µM (inactive) | > 30 µM (inactive) | > 30 µM (inactive) |  |  |  |  | > 30 µM (inactive) | > 30 µM (inactive)
